Data set [1] is described as follows: Absorption and emission spectra in solution. Format: physicochemical. An excerpt:
Expectedly, the emission spectrum of TBT-2(1P-DPA), and TBT-2(2P-DPA) both ends below 1000 nm, while the emission maximum of TBT-2(TP-DPA) was 1046 nm when upon 808 nm excitation (FIG. 3d). […] The experimental characterization is in consistency with our theoretical hypothesis, which made TBT-2(TP-DPA) ideal candidates as the template of NIR-II theranostic agents.

The nature of data set [2]: Absolute fluorescence quantum yield in the NIR region. It counts as physicochemical. The note with it: in toluene, under 808 nm excitation. How it is done: Under 808 nm excitation, the absolute quantum yield of TBT-2(TP-DPA) in the NIR region was determined to be 10.4% in toluene.

As for `CCCCC(CC)Cn1nc2c(-c3ccc(N(c4ccc(OC)cc4)c4ccc(OC)cc4)cc3)c3c(c(-c4ccc(N(c5ccc(OC)cc5)c5ccc(OC)cc5)cc4)c2n1)N=S=N3` (stereo not drawn) [TBT-2(1P-DPA)], in data set [1] (in THE solution), the “absorption ended up to” value is 800 nm and the absorption peak is recorded as 580 nm.
Turning to `CCCCC(CC)Cn1nc2c(-c3ccc(-c4ccc(N(c5ccc(OC)cc5)c5ccc(OC)cc5)cc4)s3)c3c(c(-c4ccc(-c5ccc(N(c6ccc(OC)cc6)c6ccc(OC)cc6)cc5)s4)c2n1)N=S=N3` (stereo not drawn) [TBT-2(TP-DPA)], the “emission wavelength extended to” value in data set [1] is ~1500 nm. Further, the absorption peak entry in data set [1] (in THE solution) was “around 800 nm”. In data set [1] (upon 808 nm excitation), this molecule showed an emission maximum of 1046 nm. For the same molecule, in data set [2], the “absolute quantum yield in the NIR region” value is 10.4%.
